Data as given in patent publication US8513381B2, “Melanocortin analogs with antimicrobial activity” (Fondazione IRCCS Ca' Granda-Ospedale Maggiore Policlinico, priority 2009, dated 2013).
Converted amounts (≈) assume the structure as drawn. Where two headings read alike, the source gives them in different places. Non-standard residues stand in square brackets, D forms with d. Residues, ends and D or L forms follow the SMILES beside them. d2Nal = N[C@H](Cc1ccc2ccccc2c1)C(=O)O; Cha = N[C@@H](CC1CCCCC1)C(=O)O; Aic = NC1(C(=O)O)Cc2ccccc2C1; Tle = CC(C)(C)[C@H](N)C(=O)O; Ac6c = NC1(C(=O)O)CCCCC1; Ac5c = NC1(C(=O)O)CCCC1; Ac4c = NC1(C(=O)O)CCC1; Aib = CC(C)(N)C(=O)O

Tests used:
[1] = tested on: C. glabrata; assay type: cell-based, Candida glabrata
Description: (§1) Two Candida albicans isolates were purchased from the ATCC (No. 24433 and 76615). The other yeast isolates were obtained from the collection of Fondazione Ospedale Maggiore Policlinico, Mangiagalli e Regina Elena, Milano. The collection included C. albicans (7 isolates), C. glabrata (3 isolates), and C. krusei (3 isolates). Antifungal susceptibility testing was performed using the broth microdilution method according to the NCCLS M27-A guidelines (National Committee for Clinical Laboratory Standards. 1997, Reference method for broth dilution antifungal susceptibility testing of yeasts and approved standard NCCLS document M27-A. National Committee for Clinical Laboratory Standards, Wayne, Pa.). The organisms were removed from frozen glycerol stock (10% sterile glycerol suspensions stored at −70° C.), subcultured onto Sabouraud's dextrose plates, and incubated at 35° C. After 48 h of incubation, the plates were inspected for purity. To prepare stationary growth phase yeast, a colony was taken from the agar plate and transferred into 5 mL Sabouraud-dextrose broth and incubated for 48 h at 35° C. Cells were centrifuged at 1,000×g for 10 min and the pellet was washed twice with distilled water. Cells were counted and suspended in RPMI 1640 medium buffered to pH 7.0 with 0.165 mol l^−1 morpholinepropanesulphonic acid (MOPS) buffer (Sigma) to obtain the two times test inoculum (1×10^3 to 5×10^3 CFU/mL). Each well of 96 U-shaped well-plates received 100 μl of each antifungal peptides in concentrations from 10^−4 to 7.8×10^−7 M and 100 μl of the two-times inoculum to a final yeast concentration of 0.5×10−[…] cells ml^−1
(§2) The MIC90, i.e. the minimum inhibitory concentrations endpoint determined as 90% reduction in turbidity measured using a spectrophotometer (Titertek multiscan at 690 nm wave length).

[2] = tested on: C. krusei; assay type: cell-based, Candida krusei
Description: as §1, §2

[3] = tested on: C. albicans; assay type: cell-based, Candida albicans
Description: as §1, §2

[4] = tested on: Staphylococcus aureus ATCC 29213; assay type: cell-based
Description: (§3) The bacterial strains Pseudomonas aeruginosa ATCC 27853 and Staphylococcus aureus ATCC 29213 were grown in 2% Bacto Peptone water (Difco 1807-17-4) until growth was exponential. A standard microdilution technique with an inoculum of 2×10^6 CFU/mL was used. The minimal inhibitory concentration (MIC) of the peptides was determined in 1% Bacto Peptone water after incubation overnight at 37° C.

[5] = tested on: Pseudomonas aeruginosa ATCC 27853; assay type: cell-based
Description: as §3

Row | Molecule | MIC 90 at 48 hours ([1]; C. glabrata 18012, 35° C.) | MIC 90 at 48 hours ([1]; C. glabrata 995651, 35° C.) | MIC 90 at 48 hours ([1]; C. glabrata 995667, 35° C.) | MIC 90 at 48 hours [2] | MIC 90 at 48 hours [3] | MIC 90 at 48 hours ([3]; C. albicans 000954, 35° C.) | MIC 90 at 48 hours ([3]; C. albicans 983201-R1, 35° C.) | MIC 90 at 48 hours ([3]; C. albicans 991185, 35° C.) | MIC 90 at 48 hours ([3]; C. albicans 994199, 35° C.) | MIC 90 at 48 hours ([3]; C. albicans 995147, 35° C.) | MIC 90 at 48 hours ([3]; C. albicans 995439, 35° C.) | MIC 90 at 48 hours ([3]; C. albicans ATCC 24433, 35° C.) | MIC 90 at 48 hours ([3]; C. albicans ATCC 76615, 35° C.) | MIC 90 at 48 hours [1] | MIC (minimal inhibitory concentration) [4] | MIC (minimal inhibitory concentration) [5] | MIC 90 at 48 hours ([2]; C. krusei 995668, 35° C.) | MIC 90 at 48 hours ([3]; C. albicans 011587, 35° C.) | MIC 90 at 48 hours ([2]; C. krusei 004490, 35° C.) | MIC 90 at 48 hours ([2]; C. krusei 991388, 35° C.)
1 | CC(C)[C@H](NC(=O)[C@H](Cc1ccccc1)NC(=O)[C@H](CCCCN)NC(=O)C(C)(C)NC(=O)[C@H](Cc1c[nH]c2ccccc12)NC(=O)[C@H](CCCNC(=N)N)NC(=O)[C@@H](Cc1ccc2ccccc2c1)NC(=O)[C@@H](N)Cc1c[nH]cn1)C(N)=O [MSH0702, H-His-D(2)-Nal-Arg-Trp-Aib-Lys-Phe-Val-NH2] (H-H[d2Nal]RW[Aib]KFV-NH2) | no | no | no | 115 µg/mL (≈ 99.7 µM) | 115 µg/mL (≈ 99.7 µM) | no | no | no | no | no | no | no | no |  |  |  |  |  |  | 
2 | CC(C)[C@H](NC(=O)[C@H](Cc1ccccc1)NC(=O)[C@H](CCCCN)NC(=O)[C@H](CC1CCCCC1)NC(=O)[C@H](Cc1c[nH]c2ccccc12)NC(=O)[C@H](CCCNC(=N)N)NC(=O)[C@@H](Cc1ccc2ccccc2c1)NC(=O)[C@@H](N)Cc1c[nH]cn1)C(N)=O [MSH0704, H-His-D(2)-Nal-Arg-Trp-Cha-Lys-Phe-Val-NH2] (H-H[d2Nal]RW[Cha]KFV-NH2) |  |  |  |  |  |  |  |  |  |  |  |  |  | 122 µg/mL (≈ 99.9 µM) | 31 µg/mL (≈ 25.4 µM) | 61 µg/mL (≈ 49.9 µM) |  |  |  | 
3 | CC(C)[C@H](NC(=O)[C@H](Cc1ccccc1)NC(=O)[C@H](CCCCN)NC(=O)C1(NC(=O)[C@H](Cc2c[nH]c3ccccc23)NC(=O)[C@H](CCCNC(=N)N)NC(=O)[C@@H](Cc2ccc3ccccc3c2)NC(=O)[C@@H](N)Cc2c[nH]cn2)CCCC1)C(N)=O [MSH0705, H-His-D(2)-Nal-Arg-Trp-Cpa-Lys-Phe-Val-NH2] (H-H[d2Nal]RW[Ac5c]KFV-NH2) | no | no | no | 117 µg/mL (≈ 99.2 µM) |  |  |  |  |  |  |  |  |  |  |  |  |  |  |  | 
4 | CC(C)[C@H](NC(=O)[C@H](Cc1ccccc1)NC(=O)[C@H](CCCCN)NC(=O)[C@@H](NC(=O)[C@H](Cc1c[nH]c2ccccc12)NC(=O)[C@H](CCCNC(=N)N)NC(=O)[C@@H](Cc1ccc2ccccc2c1)NC(=O)[C@@H](N)Cc1c[nH]cn1)C(C)(C)C)C(N)=O [MSH0707, H-His-D(2)-Nal-Arg-Trp-tBuGly-Lys-Phe-Val-NH2] (H-H[d2Nal]RW[Tle]KFV-NH2) | no | no | no | 118 µg/mL (≈ 99.9 µM) | 118 µg/mL (≈ 99.9 µM) | no | no | no | no | no |  | no | no |  |  |  | no | no |  | 
5 | CC(C)[C@H](NC(=O)[C@H](Cc1ccccc1)NC(=O)[C@H](CCCCN)NC(=O)C1(NC(=O)[C@H](Cc2c[nH]c3ccccc23)NC(=O)[C@H](CCCNC(=N)N)NC(=O)[C@@H](Cc2ccc3ccccc3c2)NC(=O)[C@@H](N)Cc2c[nH]cn2)Cc2ccccc2C1)C(N)=O [MSH0708, H-His-D(2)-Nal-Arg-Trp-Aic-Lys-Phe-Val-NH2] (H-H[d2Nal]RW[Aic]KFV-NH2) |  |  |  |  |  |  |  |  |  |  |  |  |  | 123 µg/mL (≈ 100 µM) | 31 µg/mL (≈ 25.3 µM) | 61 µg/mL (≈ 49.7 µM) |  |  |  | 
6 | CC(C)[C@H](NC(=O)[C@H](Cc1ccccc1)NC(=O)[C@H](CCCCN)NC(=O)C1(NC(=O)[C@H](Cc2c[nH]c3ccccc23)NC(=O)[C@H](CCCNC(=N)N)NC(=O)[C@@H](Cc2ccc3ccccc3c2)NC(=O)[C@@H](N)Cc2c[nH]cn2)CCC1)C(N)=O [MSH0709, H-His-D(2)-Nal-Arg-Trp-Cybu-Lys-Phe-Val-NH2] (H-H[d2Nal]RW[Ac4c]KFV-NH2) | no | no | no | 117 µg/mL (≈ 100 µM) | 117 µg/mL (≈ 100 µM) | no | no |  |  | no |  | no | no |  |  |  |  |  |  | 
7 | CC(C)[C@H](NC(=O)[C@H](Cc1ccccc1)NC(=O)[C@H](CCCCN)NC(=O)C1(NC(=O)[C@H](Cc2c[nH]c3ccccc23)NC(=O)[C@H](CCCNC(=N)N)NC(=O)[C@@H](Cc2ccc3ccccc3c2)NC(=O)[C@@H](N)Cc2c[nH]cn2)CCCCC1)C(N)=O [MSH0712, H-His-D(2)-Nal-Arg-Trp-Aoca-Lys-Phe-Val-NH2] (H-H[d2Nal]RW[Ac6c]KFV-NH2) | no | no | no |  | 60 µg/mL (≈ 50.3 µM) |  |  |  |  |  |  |  |  |  |  |  |  |  |  | 
8 | CC(C)[C@H](NC(=O)[C@H](Cc1ccccc1)NC(=O)[C@H](CCCCN)NC(=O)[C@H](Cc1ccccc1)NC(=O)[C@H](Cc1c[nH]c2ccccc12)NC(=O)[C@H](CCCNC(=N)N)NC(=O)[C@@H](Cc1ccc2ccccc2c1)NC(=O)[C@@H](N)Cc1c[nH]cn1)C(N)=O [MSH0713, H-His-D(2)-Nal-Arg-Trp-Phe-Lys-Phe-Val-NH2] (H-H[d2Nal]RWFKFV-NH2) | no | no | no | 122 µg/mL (≈ 100 µM) |  |  |  |  |  |  |  |  |  |  |  |  | no |  |  | 
9 | H-His-D(2)-Nal-Arg-Trp-Acpc-Lys-Phe-Val-NH2 [MSH0706] | no | no |  |  |  | no | no | no | no | no | no | no | no |  |  |  | no | no | no | no
10 | H-His-D(2)-Nal-Arg-Trp-Ala-Lys-Phe-Val-NH2 [MSH0703] | no | no | no |  |  | no | no | no | no | no | no | no | no |  |  |  | no | no | no | no
11 | H-His-D(2)-Nal-Arg-Trp-Gly-Gly-Lys-Phe-Val-NH2 [MSH0701] | no | no | no |  |  | no | no | no | no | no | no | no | no |  |  |  | no | no | no | no
12 | H-His-D(2)-Nal-Arg-Trp-β-AA-Lys-Phe-Val-NH2 [MSH0710] | no | no | no |  |  | no | no | no | no | no | no | no | no |  |  |  | no | no | no | no
